Results from US6172262A, “Amphiphilic agents for membrane protein solubilization” (priority 1999, dated 2001).
Values after ≈ are worked out from the molar mass of the structure shown. “Also recorded” adds a separate entry of the source. Like-named read-outs stand apart in the source and are kept apart here.

What was measured:
[1] = comparison detergent, source not given; cited from earlier work
[2] = CMC by dye uptake (orange OT); format: physicochemical
Text: Triphenylacetic acid 4.0 has a novel amphiphilic geometry and is commercially available.
The addition of the t-butyl group accomplished the goal of increasing the hydrophobic surface area, as indicated by the diminished CMC's.
The CMC of a detergent can be determined experimentally by measuring the solubilization of a water-insoluble dye or fluorophore while varying the concentration of detergent. CMC may also be determined by measuring the diminution of the surface tension of an aqueous solution as a function of detergent concentration. (CMC's determined by either method correlate with each other.) The CMC is determined by extrapolating the plot of solubilization vs. concentration (or surface tension vs. concentration) in the two linear regions above and below the CMC. Where the two lines intersect is the CMC. In this Example, CMC's were determined by the method of Nugebauer, J. M. (1990), Methods in Enzymology, 182:239-253: […]

[3] = Aqueous solubility; format: physicochemical; conditions: water
[4] = CMC by uptake of fluorescent dye 1,6-diphenylhexatriene, fluorescence spectroscopy; format: physicochemical
Method: The CMCs of detergents 4.65-4.72 were determined by monitoring the uptake of a fluorescent dye (1,6-diphenylhexatriene) with increasing detergent concentration (Table 1, CMC's determined by dye uptake versus concentration monitored by fluorescence spectroscopy). The CMCs of N-oxide isomers 4.65, 4.67, and 4.68 are very similar: 3 mM, 3 mM, and […], respectively. […] The CMCs for the N-oxides 4.65 and 4.66 are twice the CMCs of the corresponding hydrochloride salts (4.78 and 4.79). The hydrochloride salts were formed from the amine precursors to the N-oxides. Most cationic detergents have CMCs that are much higher than non-ionic or zwitterionic analogs. For example, dodecylammonium bromide has a CMC of 15 mM which is >7 times larger than the CMC of the N-oxide analog (LDAO, CMC=2 mM).
The CMCs of 4.100 and 4.104 were determined by the uptake of the fluorescent dye 1,6-diphenylhexatriene. The CMCs are 0.125 mM and 0.700 mM respectively. These values are substantially lower than the CMC of 4.65, which was determined to be 3 mM.
The CMC of a detergent can be determined experimentally by measuring the solubilization of a water-insoluble dye or fluorophore while varying the concentration of detergent. CMC may also be determined by measuring the diminution of the surface tension of an aqueous solution as a function of detergent concentration. (CMC's determined by either method correlate with each other.) The CMC is determined by extrapolating the plot of solubilization vs. concentration (or surface tension vs. concentration) in the two linear regions above and below the CMC. Where the two lines intersect is the CMC. In this Example, CMC's were determined by the method of Nugebauer, J. M. (1990), Methods in Enzymology, 182:239-253:
Tripod solutions in aqueous solutions containing 25 mM sodium phosphate pH 6.9 were prepared and transferred to screw-capped vials, and […] of a 1,6-diphenylhexatriene solution (DPH, 3.125 mM DPH in THF) was added. The solutions were vortexed at room temperature for 30 seconds. The solutions were placed into a 3 mm×3mm quartz cell and the fluorescence spectrum was obtained (excitation 358 nm, emission 430 nm, excitation slit width=1 mm, emission slit width=20 nm, PMT voltage=700). The fluorescence intensity of each sample was plotted against amphiphile concentration. […] The data points immediately surrounding the CMC were not considered due to non-linear behavior. See Tables 1 and 2, above, for the results.

[5] = target: T1, Bacteriorhodopsin (BR) (Halobacterium salinarum, UniProt P02945); assay: Solubilization of bacteriorhodopsin (BR) from purple membrane (PM)
T1 construct: We used BR solubilization from the PM to evaluate tripod detergents; endogenous in cells
T1 sequence (P02945 14-261 limits assumed): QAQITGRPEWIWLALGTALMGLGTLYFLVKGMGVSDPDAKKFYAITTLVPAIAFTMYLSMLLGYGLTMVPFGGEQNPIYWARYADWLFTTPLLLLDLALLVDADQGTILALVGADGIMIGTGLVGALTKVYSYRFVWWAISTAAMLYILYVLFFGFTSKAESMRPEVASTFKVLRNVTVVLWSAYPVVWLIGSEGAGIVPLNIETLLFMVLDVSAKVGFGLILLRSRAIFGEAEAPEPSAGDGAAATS
Method: We used BR solubilization from the PM to evaluate tripod detergents synthesized using the modular synthetic approach described above. The retinal chromophore of BR allowed us to quantify solubilized material by UV. Solubilized BR is defined as the intact protein left in the supernatant after a sample is centrifuged for 30 minutes at 300,000 g. The percent BR solubilized is determined by dividing the absorbance of the supernatant by the absorbance of the solution before centrifugation.
Solubilization experiments were conducted by making a series of solutions with constant concentration of PM and varying the concentration of detergent. […] The absorbance at the λmax (between 540 nm and 570 nm) was then measured, and immediately afterward the samples were centrifuged for 30 minutes at 300,000 g. The supernatant was carefully removed so as not to disturb pelleted material. Absorbance measurements were made again, and the ratio of the supernatant absorbance to the absorbance before centrifugation provided the percent solubilization.

[6] = system: BR; assay: Loss of exciton coupling of BR by CD spectra (rate of solubilization); set-up: species or system Halobacterium; conditions: room temperature
Method: Tripod detergents 4.65 and 4.66 were tested in this fashion and shown to solubilize BR from the PM quite rapidly. To measure whether the solublized BR was present in a monomeric state, CD spectra of the supernatants were taken. When suspended within the native PM, BR yields a distinct sigmoidal CD spectrum due to exciton coupling between adjacent retinal chromophores. It has been shown that the strength of the exciton coupling is directly proportional to the concentration of retinal chromophore in the PM. Because the exciton coupling requires retinals to be held in a fixed geometry (as when suspended in the PM), the solubilization of BR can be measured in terms of the loss of exciton coupling. […] Exciton coupling was completely gone after less than 10 minutes for samples solubilized by 4.65 and 4.66, a time period which is faster than the time required to obtain a CD spectrum.

[7] = target: T1, Bacteriorhodopsin (BR); conditions: reported detergents; cited from earlier work
[8] = CMC values of conventional detergents quoted for comparison; format: physicochemical

Compound: CCCCCCCCCCCC[N+](C)(C)[O-] [DDAO, dodecylammonium-N-oxide]
- CMC [1]: 10.4 mM

Compound: O=C(O)C(c1ccccc1)(c1ccccc1)c1ccccc1 [Detergent 4.1]
- CMC ([2]; orange OT uptake): 130 mM
- solubility ([3]; read-out: solubility): 210 mM (≈ 60.6 mg/mL)

Compound: C[N+](C)([O-])CCN(CC[N+](C)(C)[O-])C(=O)CC(c1ccccc1)(c1ccccc1)c1ccccc1 [Detergent 4.10]
- CMC ([2]; dye uptake): about 80 mM
- solubility in water (in words) [3]: very soluble in water
- solubility ([3]; read-out: solubility in water): > 2000 mM

Compound: CC(C)(C)c1ccc(C(CC(=O)N(CC[N+](C)(C)[O-])CC[N+](C)(C)[O-])(c2ccccc2)c2ccccc2)cc1 [Detergent 4.20]
- CMC ([2]; dye uptake): about 12.5 mM

Compound: CCCCC(CCCC)(CC(=O)NCCC[N+](C)(C)[O-])c1ccccc1 [Detergent 4.66]
- CMC of N-oxide relative to corresponding hydrochloride salt ([4]; 4.65 vs 4.78, 4.66 vs 4.79): twice
- CMC (Critical Micelle Concentration) ([4]; uptake of 1,6-diphenylhexatriene, 25 mM sodium phosphate pH 6.9, Table 1 and text): 4.5 mM
- BR solubilization (in words) [5]: readily solubilize BR; also recorded: can solubilize BR
- rate of BR solubilization (in words) [6]: quite rapidly; also recorded: too rapid to monitor the loss of exciton coupling
- time to complete loss of exciton coupling [6]: less than 10 minutes

Compound: CCCCCCCCO[C@@H]1O[C@H](CO)[C@@H](O)[C@H](O)[C@H]1O [OG]
- removal of BR from the purple membrane (in words) [7]: successfully remove BR from its native environment

Compound: Br.CCCCCCCCCCCCN [dodecylammonium bromide]
- CMC ratio, dodecylammonium bromide vs N-oxide analog (LDAO) [8]: > 7 times larger
- CMC [1]: 15 mM

Compound: CCCCCCCCCO[C@@H]1O[C@H](CO)[C@@H](O)[C@H](O)[C@H]1O [nonyl glucoside (NG), nonyl glucoside]
- removal of BR from the purple membrane (in words) [7]: successfully remove BR from its native environment

Compound: Triton X-100 [reference compound]
- BR solubilization (in words) [5]: effective at solubilizing BR
- time to solubilize BR ([5]; pH 5): 49 h
- time to solubilize BR ([5]; pH 6.9): 24 h
- removal of BR from the purple membrane (in words) [7]: successfully remove BR from its native environment
